# Assays:
# induced-diabetic rats = test: Antihyperglycemic activity: fall in fasting blood glucose in alloxan-induced diabetic rats; type: in vivo, rat (Sprague Dawley)
# [1] = Mortality, behaviour and acute toxicity signs in injected diabetic rats; type: in vivo, rat (Sprague Dawley); conditions: insulin 20 units/kg b.w
# [2] = system: Candida albicans ATCC10231; test: Kirby-Bauer disc diffusion; type: cell-based; conditions: reference antibiotic disc, 100 units/disc
# Excerpt: (§1) Experimental procedures include the following steps: • 1.
# [3] = system: Cryptococcus neoformans ATCC90112; test: Kirby-Bauer disc diffusion; type: cell-based; conditions: reference antibiotic disc, 100 units/disc
# Excerpt: as §1
molecule,measurement,setting,value
insulin: insulin from bovine pancreas (≧27 units/mg),fasting blood glucose (FBG),induced-diabetic rats; after two hours of injection,sharp significant decrease (p<0.001)
same,difference between normal rats and treated diabetic rats,induced-diabetic rats; at either dose,No significant difference
same,fasting blood glucose (FBG),"induced-diabetic rats; insulin 10 units/kg b.w, after 8 hours of treatment",returned to the diabetic state
same,hypoglycemia and mortality,[1],hypoglycemic condition in all rats leading to the death of one rat
"C[C@@H]1[C@H](O)[C@@H](C)/C=C/C=C/CC/C=C/C=C/C=C/C=C/C(O[C@H]2O[C@H](C)[C@@H](O)[C@H](N)[C@@H]2O)CC2O[C@](O)(CC(O)C(O)CCC(O)CC(O)CC(O)CC(=O)O[C@H]1C)CC(O)C2C(=O)O (stereo partly drawn) [Nystatin, nystatin]",Zone of inhibition (mm) C. albicans,[2],10 mm
same,Zone of inhibition (mm) C. neoformance,[3],9 mm

# Reference: patent US8501241B1, “Treating cancer with a whole, leech saliva extract” (priority 2012, dated 2013)
